Test results taken from patent US8895558B2, “Arylpiperazine-containing pyrrole 3-carboxamide derivatives for treating depressive disorders” (Green Cross Corporation, priority 2008, dated 2014).
Structures can show the parent of a compound that is named as a salt.

Key:
[1] = target: T1, human recombinant serotonin 5-HT2A receptor (Homo sapiens, UniProt P28223); assay: Binding affinity for serotonin 5-HT2A receptor ([3H]Ketanserin); settings: CHO-K1 expressed receptor, 1 nM [3H]Ketanserin
T1 construct: purchased PerkinElmer Life and Analytical Sciences, USA; host or cells: CHO-K1
T1 sequence (P28223 whole entry): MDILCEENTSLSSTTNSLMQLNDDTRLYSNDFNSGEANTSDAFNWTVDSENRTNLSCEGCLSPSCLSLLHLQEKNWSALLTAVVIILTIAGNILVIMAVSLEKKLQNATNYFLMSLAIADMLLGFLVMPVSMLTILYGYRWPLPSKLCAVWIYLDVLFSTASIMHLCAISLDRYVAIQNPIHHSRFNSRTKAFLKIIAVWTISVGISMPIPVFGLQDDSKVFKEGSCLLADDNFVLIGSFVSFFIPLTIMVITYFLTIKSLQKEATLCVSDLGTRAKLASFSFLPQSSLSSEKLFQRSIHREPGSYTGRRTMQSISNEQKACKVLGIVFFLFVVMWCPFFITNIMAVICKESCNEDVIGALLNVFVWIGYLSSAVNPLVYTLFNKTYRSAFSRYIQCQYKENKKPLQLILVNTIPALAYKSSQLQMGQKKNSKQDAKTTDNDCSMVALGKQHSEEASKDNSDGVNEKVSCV
Summary of the method: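 Membranes from CHO-K1 cells expressing recombinant receptor (5 ug/well) incubated 60 min at 27 with 1 nM [3H]ketanserin in 50 mM Tris-HCl pH 7.4, 4 mM CaCl2, 0.1% ascorbic acid; mianserin 20 uM defined nonspecific binding. Filtration and counting; IC50 by nonlinear regression over 7-8 concentrations in duplicate.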

[2] = target: T2, human recombinant 5-HT2C receptor (Homo sapiens, UniProt P28335); assay: Binding affinity for serotonin 5-HT2C receptor ([3H]Mesulergine); settings: CHO-K1 membranes, 1.3 nM [3H]Mesulergine
T2 construct: purchased PerkinElmer
T2 sequence (P28335 33-458): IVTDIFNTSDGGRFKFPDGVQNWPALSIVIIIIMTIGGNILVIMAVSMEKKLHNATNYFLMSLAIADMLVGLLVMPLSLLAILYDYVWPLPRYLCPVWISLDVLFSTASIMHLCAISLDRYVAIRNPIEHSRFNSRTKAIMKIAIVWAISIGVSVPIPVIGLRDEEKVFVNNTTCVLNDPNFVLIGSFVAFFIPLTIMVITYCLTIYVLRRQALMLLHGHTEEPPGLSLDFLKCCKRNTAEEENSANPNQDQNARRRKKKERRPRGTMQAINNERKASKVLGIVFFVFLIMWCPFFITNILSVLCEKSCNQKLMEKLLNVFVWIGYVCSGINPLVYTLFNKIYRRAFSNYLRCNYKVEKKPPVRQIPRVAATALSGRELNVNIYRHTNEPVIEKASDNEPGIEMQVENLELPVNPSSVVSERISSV
Summary of the method: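 Competition binding with [3H]mesulergine; nonspecific binding defined with 100 uM mianserin. Incubation 60 min at 27, stopped by rapid filtration onto glass fiber filters presoaked in 0.5% PEI.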

[3] = target: T3, human serotonin transporter (Homo sapiens, UniProt P31645); assay: Binding affinity for serotonin transporter ([3H]Imipramine); settings: HEK-293 membranes, 2 nM [3H]Imipramine
T3 construct: purchased PerkinElmer; host or cells: HEK-293
T3 sequence (P31645 whole entry): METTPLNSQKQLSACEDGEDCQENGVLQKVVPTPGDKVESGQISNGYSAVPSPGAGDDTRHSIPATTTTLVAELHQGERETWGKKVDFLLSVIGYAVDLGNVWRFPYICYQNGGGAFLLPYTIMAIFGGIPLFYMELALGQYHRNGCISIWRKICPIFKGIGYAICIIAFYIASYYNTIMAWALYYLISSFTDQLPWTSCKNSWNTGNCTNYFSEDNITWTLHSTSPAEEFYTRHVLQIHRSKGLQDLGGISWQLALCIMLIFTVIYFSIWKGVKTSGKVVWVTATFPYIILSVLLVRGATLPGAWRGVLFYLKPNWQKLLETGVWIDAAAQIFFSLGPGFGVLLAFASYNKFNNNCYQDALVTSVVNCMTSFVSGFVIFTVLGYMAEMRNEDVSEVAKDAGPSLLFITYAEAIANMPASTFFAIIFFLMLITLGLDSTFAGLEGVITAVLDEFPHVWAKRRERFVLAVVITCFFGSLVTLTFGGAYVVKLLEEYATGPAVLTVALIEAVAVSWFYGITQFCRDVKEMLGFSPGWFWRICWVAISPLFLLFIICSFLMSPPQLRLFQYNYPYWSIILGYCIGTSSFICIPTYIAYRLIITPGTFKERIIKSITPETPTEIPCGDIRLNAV
Summary of the method: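 Membranes from HEK-293 cells expressing human serotonin transporter (5 ug/well) incubated with compound and 2 nM [3H]imipramine in 50 mM Tris-HCl pH 7.4, 120 mM NaCl, 5 mM KCl, 30 min at 27. Bound ligand separated by filtration onto glass fiber filters presoaked in 0.5% PEI, washed with ice-cold Tris-HCl/0.9% NaCl.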

mice = assay: Anti-depressants activity in forced swimming test; format: in vivo; settings: 100 mg/kg po, 60 min before testing, hydrochloride
Experimental: To evaluate the anti-depressants activity of the compounds, the inhibitory effects on immobility in forced swimming test in mice were measured according to the methods described by Porsolt et al. [Porsolt R D et al., Eur J Pharmacol. 1978, 51, 291-294].
Each mouse was placed in a 25-cm glass cylinder (10 cm diameter) containing 15 cm of water maintained at 22±1 , and was forced to swim for 10 min. Twenty-four hours later, the mouse was replaced into the cylinder and the total duration of immobility was recorded during the last 5 min of the 6-min testing period. Mice are judged immobile when they float in an upright position and make only small movements to keep their head above water. Test drugs were suspended in 3% Tween 80 solution, and administered orally (po) 60 min before the testing.

SMILES | IC50 [1] | IC50 [2] | IC50 [3] | immobility in forced swimming test (mice)
Cc1[nH]c(-c2ccccc2)cc1C(=O)NCCN1CCN(c2cccc(Cl)c2Cl)CC1.Cl [Example 48, N-(2-(4-(2,3-dichlorophenyl)piperazin-1-yl)ethyl)-2-methyl-5-phenyl-1H-pyrrole-3-carboxamide hydrochloride] | 175 nM | 156 nM | 57 nM | 26.1%
Cc1cccc(N2CCN(CCCNC(=O)c3cc(-c4ccccc4)n(CC4CCCCC4)c3C)CC2)c1C [Example 21, 1-(Cyclohexylmethyl)-N-(3-(4-(2,3-dimethylphenyl)piperazin-1-yl)propyl)-2-methyl-5-phenyl-1H-pyrrole-3-carboxamide] | 1230 nM | 638 nM | 352 nM | 
CCCn1c(-c2ccccc2)cc(C(=O)NCCCN2CCN(c3ccccc3OC)CC2)c1C [Example 84, N-(3-(4-(2-Methoxyphenyl)piperazin-1-yl)propyl)-2-methyl-5-phenyl-1-propyl-1H-pyrrole-3-carboxamide] | 953 nM | 1410 nM | 1080 nM | 
CCCn1c(-c2ccccc2)cc(C(=O)NCCCN2CCN(c3cccc(Cl)c3Cl)CC2)c1C [Example 12, N-(3-(4-(2,3-dichlorophenyl)piperazin-1-yl)propyl)-2-methyl-5-phenyl-1-propyl-1H-pyrrole-3-carboxamide] | 324 nM | 628 nM | 420 nM | 
C=CCCc1cc(C(=O)NCCCN2CCN(c3cccc(Cl)c3Cl)CC2)c(C)[nH]1 [Example 135, 5-(but-3-enyl)-N-(3-(4-(2,3-dichlorophenyl)piperazin-1-yl)propyl)-2-methyl-1H-pyrrole-3-carboxamide] | 65 nM | 157 nM | 144 nM | 
Cc1c(C(=O)N(C)CCCN2CCN(c3cccc(Cl)c3Cl)CC2)cc(-c2ccccc2)n1C [Example 37, N-(3-(4-(2,3-dichlorophenyl)piperazin-1-yl)propyl)-N,1,2-trimethyl-5-phenyl-1H-pyrrole-3-carboxamide hydrochloride] | 38.8 nM | 34.5 nM | 98 nM | 
CCn1c(-c2ccc(OC)cc2)cc(C(=O)NCCCN2CCN(c3cccc(Cl)c3Cl)CC2)c1C [Example 75, N-(3-(4-(2,3-dichlorophenyl)piperazin-1-yl)propyl)-1-ethyl-5-(4-methoxyphenyl)-2-methyl-1H-pyrrole-3-carboxamide hydrochloride] | 141 nM | 35 nM | 100 nM | 
